The record followed here is ChEMBL document CHEMBL3046289, “Synthesis and in vitro antimicrobial activity of some newer quinazolinonesulfonamide linked hybrid heterocyclic entities derived from glycine” (2013).

Common to all, as to assay type: functional
The subject of one test is Klebsiella pneumoniae. Put plainly: Antibacterial activity against Klebsiella pneumoniae MTCC 139 assessed as growth inhibition after 24 hr by broth microdilution method. Conditions: MTCC 139, 24 h. For orientation: Broth dilution looks for growth in wells or tubes with falling amounts of substance.
A further test has as its system Aspergillus niger. Put plainly: Antifungal activity against Aspergillus niger MTCC 282 assessed as growth inhibition after 48 hr by broth microdilution method. To be noted: MTCC 282, 48 h.
The next test deals with Escherichia coli. Kind of test: Antibacterial activity against Escherichia coli MTCC 443 assessed as growth inhibition after 24 hr by broth microdilution method. To be noted: MTCC 443, 24 h.
A further test relates to Pseudomonas aeruginosa. Put plainly: Antibacterial activity against Pseudomonas aeruginosa MTCC 1688 assessed as growth inhibition after 24 hr by broth microdilution method. Conditions: MTCC 1688, 24 h.
In a further test the test system is Bacillus cereus. Kind of test: Antibacterial activity against Bacillus cereus MTCC 1305 assessed as growth inhibition after 24 hr by broth microdilution method. To be noted: MTCC 1305, 24 h.
Another test concerns Candida albicans. Put plainly: Antifungal activity against Candida albicans MTCC 227 assessed as growth inhibition after 48 hr by broth microdilution method. Conditions: MTCC 227, 48 h.
Another test has as its system Staphylococcus aureus. Put plainly: Antibacterial activity against Staphylococcus aureus MTCC 2940 assessed as growth inhibition after 24 hr by broth microdilution method. To be noted: MTCC 2940, 24 h.

Converted amounts (≈) assume the structure as drawn.

A word on the MIC: it is the lowest concentration that inhibits growth of the organism. With `CC(=O)Nc1ccc(S(=O)(=O)NCc2nc3ccccc3c(=O)n2-c2ccc([N+](=O)[O-])cc2)cc1`, the minimum inhibitory concentration (MIC) was found to be 105 µg/mL (≈ 213 µM) with Klebsiella pneumoniae; 55 µg/mL (≈ 111 µM) in the test on Aspergillus niger; 70 µg/mL (≈ 142 µM) in the test on Escherichia coli; 90 µg/mL (≈ 182 µM) in the test on Pseudomonas aeruginosa; 85 µg/mL (≈ 172 µM) in the test on Bacillus cereus; 70 µg/mL (≈ 142 µM) in the test on Candida albicans. In addition, the MIC in the test on Staphylococcus aureus turned out to be 80 µg/mL (≈ 162 µM).

As for `Nc1ccc(S(=O)(=O)NCc2nc3ccccc3c(=O)n2-c2ccccc2Cl)cc1`, the MIC worked out at 90 µg/mL (≈ 204 µM) in the test on Klebsiella pneumoniae; 50 µg/mL (≈ 113 µM) in the test on Aspergillus niger; 55 µg/mL (≈ 125 µM) in the test with Escherichia coli; 60 µg/mL (≈ 136 µM) with Pseudomonas aeruginosa; 90 µg/mL (≈ 204 µM) in the test on Bacillus cereus; 60 µg/mL (≈ 136 µM) with Candida albicans. In addition, in the test on Staphylococcus aureus, the MIC was 60 µg/mL (≈ 136 µM).

With `Nc1ccc(S(=O)(=O)NCc2nc3ccccc3c(=O)n2-c2cccc(Cl)c2)cc1`, the MIC was 80 µg/mL (≈ 181 µM) with Klebsiella pneumoniae; 50 µg/mL (≈ 113 µM) in the test with Aspergillus niger; 50 µg/mL (≈ 113 µM) with Escherichia coli; 55 µg/mL (≈ 125 µM) in the test on Pseudomonas aeruginosa; 65 µg/mL (≈ 147 µM) in the test on Bacillus cereus; 55 µg/mL (≈ 125 µM) in the test with Candida albicans. For the same molecule, the MIC in the test with Staphylococcus aureus was found to be 55 µg/mL (≈ 125 µM).

Consider `Nc1ccc(S(=O)(=O)NCc2nc3ccccc3c(=O)n2-c2ccc(Cl)cc2)cc1`, for which the minimal inhibitory concentration (MIC) with Klebsiella pneumoniae was 75 µg/mL (≈ 170 µM); with Aspergillus niger, 40 µg/mL (≈ 90.7 µM); in the test with Escherichia coli, 45 µg/mL (≈ 102 µM); in the test with Pseudomonas aeruginosa it was 50 µg/mL (≈ 113 µM); with Bacillus cereus, 55 µg/mL (≈ 125 µM); in the test on Candida albicans, 45 µg/mL (≈ 102 µM). In addition, the minimum inhibitory concentration (MIC) with Staphylococcus aureus was 45 µg/mL (≈ 102 µM).

`CC(=O)Nc1ccc(S(=O)(=O)NCc2nc3ccccc3c(=O)n2-c2ccccc2Cl)cc1`: the MIC in the test with Klebsiella pneumoniae was 100 µg/mL (≈ 207 µM); in the test on Aspergillus niger, 60 µg/mL (≈ 124 µM); in the test on Escherichia coli, 70 µg/mL (≈ 145 µM); in the test on Pseudomonas aeruginosa, 75 µg/mL (≈ 155 µM); with Bacillus cereus, 100 µg/mL (≈ 207 µM); in the test with Candida albicans, 75 µg/mL (≈ 155 µM). For the same molecule, in the test on Staphylococcus aureus, the MIC amounted to 70 µg/mL (≈ 145 µM).

`CC(=O)Nc1ccc(S(=O)(=O)NCc2nc3ccccc3c(=O)n2-c2cccc(Cl)c2)cc1`: the MIC in the test with Klebsiella pneumoniae is 105 µg/mL (≈ 217 µM); in the test on Aspergillus niger, 55 µg/mL (≈ 114 µM); in the test with Escherichia coli, 60 µg/mL (≈ 124 µM); in the test with Pseudomonas aeruginosa it was 70 µg/mL (≈ 145 µM); with Bacillus cereus, 95 µg/mL (≈ 197 µM); in the test on Candida albicans it was 70 µg/mL (≈ 145 µM). Moreover, the minimal inhibitory concentration (MIC) in the test on Staphylococcus aureus was found to be 65 µg/mL (≈ 135 µM).

As for `CC(=O)Nc1ccc(S(=O)(=O)NCc2nc3ccccc3c(=O)n2-c2ccc(Cl)cc2)cc1`, the MIC in the test on Klebsiella pneumoniae stood at 85 µg/mL (≈ 176 µM); in the test on Aspergillus niger, 55 µg/mL (≈ 114 µM); in the test on Escherichia coli it was 60 µg/mL (≈ 124 µM); in the test with Pseudomonas aeruginosa, 65 µg/mL (≈ 135 µM); in the test with Bacillus cereus, 90 µg/mL (≈ 186 µM); in the test with Candida albicans, 65 µg/mL (≈ 135 µM). The MIC in the test with Staphylococcus aureus is 60 µg/mL (≈ 124 µM).

For `Nc1ccc(S(=O)(=O)NCc2nc3ccccc3c(=O)n2-c2cccc(Br)c2)cc1`, the MIC with Klebsiella pneumoniae came to 75 µg/mL (≈ 155 µM); with Aspergillus niger, 40 µg/mL (≈ 82.4 µM); in the test with Escherichia coli it was 50 µg/mL (≈ 103 µM); in the test with Pseudomonas aeruginosa, 55 µg/mL (≈ 113 µM); in the test on Bacillus cereus it was 60 µg/mL (≈ 124 µM); in the test with Candida albicans, 45 µg/mL (≈ 92.7 µM). In the test with Staphylococcus aureus, the MIC amounted to 50 µg/mL (≈ 103 µM).

`Nc1ccc(S(=O)(=O)NCc2nc3ccccc3c(=O)n2-c2ccc(Br)cc2)cc1`: the MIC amounted to 75 µg/mL (≈ 155 µM) in the test on Klebsiella pneumoniae; 45 µg/mL (≈ 92.7 µM) in the test on Aspergillus niger; 50 µg/mL (≈ 103 µM) with Escherichia coli; 50 µg/mL (≈ 103 µM) in the test on Pseudomonas aeruginosa; 65 µg/mL (≈ 134 µM) in the test with Bacillus cereus; 55 µg/mL (≈ 113 µM) with Candida albicans. The MIC in the test on Staphylococcus aureus amounted to 55 µg/mL (≈ 113 µM).

Regarding `CC(=O)Nc1ccc(S(=O)(=O)NCc2nc3ccccc3c(=O)n2-c2ccccc2Br)cc1`, the MIC with Klebsiella pneumoniae worked out at 95 µg/mL (≈ 180 µM); in the test with Aspergillus niger, 60 µg/mL (≈ 114 µM); in the test with Escherichia coli, 65 µg/mL (≈ 123 µM); in the test with Pseudomonas aeruginosa, 75 µg/mL (≈ 142 µM); in the test with Bacillus cereus, 95 µg/mL (≈ 180 µM); in the test on Candida albicans it was 70 µg/mL (≈ 133 µM). For the same molecule, in the test on Staphylococcus aureus, the MIC came to 70 µg/mL (≈ 133 µM).

As to `CC(=O)Nc1ccc(S(=O)(=O)NCc2nc3ccccc3c(=O)n2-c2cccc(Br)c2)cc1`, the MIC with Klebsiella pneumoniae amounted to 90 µg/mL (≈ 171 µM); with Aspergillus niger, 55 µg/mL (≈ 104 µM); with Escherichia coli, 70 µg/mL (≈ 133 µM); with Pseudomonas aeruginosa it was 70 µg/mL (≈ 133 µM); with Bacillus cereus it was 90 µg/mL (≈ 171 µM); in the test with Candida albicans, 70 µg/mL (≈ 133 µM). Besides, in the test with Staphylococcus aureus, the minimal inhibitory concentration (MIC) was 65 µg/mL (≈ 123 µM).

Take `CC(=O)Nc1ccc(S(=O)(=O)NCc2nc3ccccc3c(=O)n2-c2ccc(Br)cc2)cc1`: the MIC came to 90 µg/mL (≈ 171 µM) in the test with Klebsiella pneumoniae; 50 µg/mL (≈ 94.8 µM) in the test with Aspergillus niger; 65 µg/mL (≈ 123 µM) in the test with Escherichia coli; 65 µg/mL (≈ 123 µM) in the test with Pseudomonas aeruginosa; 95 µg/mL (≈ 180 µM) with Bacillus cereus; 60 µg/mL (≈ 114 µM) in the test on Candida albicans. Further, in the test on Staphylococcus aureus, the MIC is 60 µg/mL (≈ 114 µM).

On to `CC1(C)S[C@@H]2[C@H](NC(=O)[C@H](N)c3ccccc3)C(=O)N2[C@H]1C(=O)O` [AMPICILLIN], for which the MIC worked out at 85 µg/mL (≈ 243 µM) in the test on Klebsiella pneumoniae; 50 µg/mL (≈ 143 µM) in the test on Escherichia coli; 55 µg/mL (≈ 157 µM) with Pseudomonas aeruginosa; 60 µg/mL (≈ 172 µM) in the test on Bacillus cereus; 45 µg/mL (≈ 129 µM) with Staphylococcus aureus.

As for `CC(=O)N1CCN(c2ccc(OCC3COC(Cn4ccnc4)(c4ccc(Cl)cc4Cl)O3)cc2)CC1` (stereo unspecified) [KETOCONAZOLE], the MIC came out at 40 µg/mL (≈ 75.3 µM) in the test on Aspergillus niger and 50 µg/mL (≈ 94.1 µM) with Candida albicans.
